Activity calls are given as the source filed them.
Experiments:
[1] = biological target: Alkaline phosphatase, placental type (Homo sapiens, UniProt P05187); assay: human placental alkaline phosphatase inhibition – biochemical, luminescence, confirmation (AID 1512); format: functional
[2] = biological target: Alkaline phosphatase, tissue-nonspecific isozyme (Homo sapiens, UniProt P05186); assay: potency against alkaline phosphatase TNAP – biochemical, luminescent, dose response, SAR follow-up (AID 1056)
[3] = THP-1 cell cytotoxicity, dose response, cytotoxicity control for non-replicating M. tuberculosis project (AID 489025); format: functional
Vero = assay: cells; format: functional; details: Chlorocebus sabaeus
[4] = HepG2 cell cytotoxicity, dose response, cytotoxicity control for non-replicating M. tuberculosis project (AID 489018); format: functional; details: Mycobacterium tuberculosis
cells = format: functional
[5] = Trypanosoma cruzi growth suppression in host cells – NIH3T3 host cells, beta-gal luminescence, confirmation (AID 2044); format: functional, cell-based;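 note: intracellular parasites grown in NIH/3T3 mouse fibroblasts as host cells; luminescent beta-galactosidase reporter signal from transgenic T. cruzi replicating inside host cells; inhibitors lower the luminescence signal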
[6] = Vero E6 cell cytotoxicity, dose response, cytotoxicity control for non-replicating M. tuberculosis project, secondary assay (AID 492998); format: functional, VeroE6; details: Vero C1008
[7] = NIH3T3 cell viability loss – ATP luminescence, mouse fibroblasts, counter-screen, dose response (AID 2010); format: functional, cell-based;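 note: cells exposed to compound for about 90 hours before reading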
[8] = biological target: G-protein coupled receptor 55 (Homo sapiens, UniProt Q9Y2T6); assay: selective activators of receptor GPR55 – imaging, U2OS cells, beta-arrestin-GFP redistribution, primary screen (AID 1961); format: functional
[9] = biological target: T1, Short transient receptor potential channel 4 (Mus musculus, UniProt Q9QUQ5); assay: potentiation of DAMGO-evoked TRPC4 calcium signal – cell-based, HEK293 TRPC4/mu-opioid, Fluo-4 calcium, EC20 DAMGO, dose response (AID 434941); format: functional
T1 sequence (Q9QUQ5 whole entry): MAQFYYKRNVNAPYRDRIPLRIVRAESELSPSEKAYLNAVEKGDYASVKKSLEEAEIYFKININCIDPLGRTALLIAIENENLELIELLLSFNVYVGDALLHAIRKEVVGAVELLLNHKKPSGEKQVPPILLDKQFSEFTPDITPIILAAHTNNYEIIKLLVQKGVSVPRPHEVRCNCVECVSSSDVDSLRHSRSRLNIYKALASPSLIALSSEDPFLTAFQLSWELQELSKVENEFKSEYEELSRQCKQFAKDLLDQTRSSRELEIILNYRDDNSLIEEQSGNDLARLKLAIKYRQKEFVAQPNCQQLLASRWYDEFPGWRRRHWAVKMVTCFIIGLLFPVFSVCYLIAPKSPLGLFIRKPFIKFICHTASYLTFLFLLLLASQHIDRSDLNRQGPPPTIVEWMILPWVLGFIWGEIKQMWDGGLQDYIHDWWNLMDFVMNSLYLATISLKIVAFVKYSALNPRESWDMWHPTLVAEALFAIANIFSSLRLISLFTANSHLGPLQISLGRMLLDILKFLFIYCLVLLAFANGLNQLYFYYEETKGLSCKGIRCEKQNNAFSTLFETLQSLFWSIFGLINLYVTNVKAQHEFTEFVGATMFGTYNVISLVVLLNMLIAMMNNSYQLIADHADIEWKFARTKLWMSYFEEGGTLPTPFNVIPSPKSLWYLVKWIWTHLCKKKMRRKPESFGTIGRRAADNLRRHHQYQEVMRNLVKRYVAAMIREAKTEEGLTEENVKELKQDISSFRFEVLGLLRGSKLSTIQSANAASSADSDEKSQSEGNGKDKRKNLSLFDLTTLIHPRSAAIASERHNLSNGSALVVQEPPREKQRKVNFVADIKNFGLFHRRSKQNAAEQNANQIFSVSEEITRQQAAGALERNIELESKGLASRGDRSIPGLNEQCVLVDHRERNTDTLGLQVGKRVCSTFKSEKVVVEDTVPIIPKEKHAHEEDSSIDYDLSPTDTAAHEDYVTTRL

[10] = biological target: T2, Mannose-6-phosphate isomerase (Homo sapiens, UniProt P34949); assay: phosphomannose isomerase inhibition – biochemical, fluorescence intensity, confirmation (AID 1535)
T2 sequence (P34949 whole entry): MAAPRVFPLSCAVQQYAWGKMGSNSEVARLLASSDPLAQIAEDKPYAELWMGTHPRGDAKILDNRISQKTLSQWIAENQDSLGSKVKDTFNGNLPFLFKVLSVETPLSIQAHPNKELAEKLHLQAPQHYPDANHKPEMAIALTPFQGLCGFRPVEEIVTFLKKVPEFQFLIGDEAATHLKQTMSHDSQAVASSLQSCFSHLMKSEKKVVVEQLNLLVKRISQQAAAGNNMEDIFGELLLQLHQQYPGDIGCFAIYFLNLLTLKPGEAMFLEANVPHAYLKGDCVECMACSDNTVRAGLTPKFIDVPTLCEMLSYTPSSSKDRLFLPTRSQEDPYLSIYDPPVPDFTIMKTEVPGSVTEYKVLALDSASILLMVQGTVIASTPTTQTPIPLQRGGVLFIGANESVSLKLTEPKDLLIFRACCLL

Phosphomannomutase 2 = Phosphomannomutase 2 (Homo sapiens, UniProt O15305); assay: Counter screen SAR assay for PMM2 inhibitors via a fluorescence intensity assay. [Related pubchem assays (depositor defined):AID1545, AID1574]
Troponin, cardiac muscle = Troponin, cardiac muscle (Homo sapiens, UniProt P19429+P45379+P63316); assay: Fluorescence-based biochemical high throughput dose response assay for activators of the calcium sensitivity of cardiac Regulated Thin Filaments (RTF). [Related pubchem assays (depositor defined):AID493008, AID493018, AID504382, AID504383]; format: protein-complex assay

G-protein coupled receptor 55, sequence (Q9Y2T6 whole entry): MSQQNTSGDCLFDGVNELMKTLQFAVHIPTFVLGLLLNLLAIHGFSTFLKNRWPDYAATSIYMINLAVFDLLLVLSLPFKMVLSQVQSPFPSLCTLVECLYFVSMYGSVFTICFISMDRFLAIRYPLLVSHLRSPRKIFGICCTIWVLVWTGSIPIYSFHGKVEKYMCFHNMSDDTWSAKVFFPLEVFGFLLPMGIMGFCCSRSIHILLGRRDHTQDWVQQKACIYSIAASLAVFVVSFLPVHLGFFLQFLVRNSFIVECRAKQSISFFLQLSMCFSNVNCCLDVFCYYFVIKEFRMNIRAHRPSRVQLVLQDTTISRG
Alkaline phosphatase, tissue-nonspecific isozyme, sequence (P05186 whole entry): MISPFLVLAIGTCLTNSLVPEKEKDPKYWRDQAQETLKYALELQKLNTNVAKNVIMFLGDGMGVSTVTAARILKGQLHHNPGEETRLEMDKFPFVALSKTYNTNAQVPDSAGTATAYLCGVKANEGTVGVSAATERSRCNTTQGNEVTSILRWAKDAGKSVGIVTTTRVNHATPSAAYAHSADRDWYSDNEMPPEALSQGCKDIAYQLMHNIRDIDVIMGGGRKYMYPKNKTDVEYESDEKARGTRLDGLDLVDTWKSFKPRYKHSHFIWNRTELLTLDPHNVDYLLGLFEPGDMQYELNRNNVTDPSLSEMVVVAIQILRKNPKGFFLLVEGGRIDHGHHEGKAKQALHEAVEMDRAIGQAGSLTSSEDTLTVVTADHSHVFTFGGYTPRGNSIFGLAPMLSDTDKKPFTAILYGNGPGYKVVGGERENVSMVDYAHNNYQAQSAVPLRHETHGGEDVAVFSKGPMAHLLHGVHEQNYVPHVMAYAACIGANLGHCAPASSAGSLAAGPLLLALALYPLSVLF
Phosphomannomutase 2, sequence (O15305 whole entry): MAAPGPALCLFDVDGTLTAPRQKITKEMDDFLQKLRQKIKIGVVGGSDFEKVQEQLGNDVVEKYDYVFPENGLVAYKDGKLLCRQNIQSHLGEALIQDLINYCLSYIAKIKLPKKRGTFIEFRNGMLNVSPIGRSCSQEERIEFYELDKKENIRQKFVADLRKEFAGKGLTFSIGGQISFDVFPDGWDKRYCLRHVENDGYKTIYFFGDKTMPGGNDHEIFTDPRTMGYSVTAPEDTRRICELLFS
Alkaline phosphatase, placental type, sequence (P05187 whole entry): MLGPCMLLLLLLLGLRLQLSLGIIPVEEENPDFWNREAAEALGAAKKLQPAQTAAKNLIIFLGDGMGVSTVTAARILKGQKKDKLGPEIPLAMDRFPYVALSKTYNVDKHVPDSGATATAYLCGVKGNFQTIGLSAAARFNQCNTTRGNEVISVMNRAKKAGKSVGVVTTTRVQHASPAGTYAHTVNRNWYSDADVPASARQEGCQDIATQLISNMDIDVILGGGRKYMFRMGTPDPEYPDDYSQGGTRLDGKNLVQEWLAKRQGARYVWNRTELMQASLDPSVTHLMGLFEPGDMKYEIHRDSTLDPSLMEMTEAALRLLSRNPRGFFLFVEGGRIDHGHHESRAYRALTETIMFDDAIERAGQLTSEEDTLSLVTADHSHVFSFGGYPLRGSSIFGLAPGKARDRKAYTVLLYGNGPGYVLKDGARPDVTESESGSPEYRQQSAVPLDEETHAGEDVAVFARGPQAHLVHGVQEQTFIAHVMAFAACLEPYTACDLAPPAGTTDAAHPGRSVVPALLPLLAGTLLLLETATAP

In the case of `COc1ccc(C(=O)CSc2nc3cc(C)c(C)cc3[nH]2)cc1OC`, the IC50 [1] is reported as > 100 µM (inactive) and the IC50 [2] is reported as > 100 µM (inactive).

With `O=C(Nc1nc2ccccc2n1CCOc1ccc(Cl)cc1)c1ccco1` the CC50 [3] was 34.4 µM (active), the CC50 (Vero) was 14 µM (active) and the CC50 [4] was > 20 µM (active). For the same molecule, the IC50 (cells) was 9.2 µM (active), the EC50 [5] was 2.02 µM (active) and the CC50 [6] was 9.25 µM (active). The EC50 [7] was 8.97 µM (active).

With `O=C(CSc1nc2ccccc2s1)N1c2ccccc2Sc2ccccc21` the EC50 [8] was 12.7 µM (inactive).

For `Cc1cc(-c2ccc(C)c(S(=O)(=O)N3CCN(C(=O)c4ccco4)CC3)c2)on1`, the EC50 [9] was 6.68 µM (active).

For `CCOC(=O)c1ccc(NC2Nc3cc(C)nn3S2)cc1` (centres undefined), the IC50 [10] was > 50 µM (inactive) and the IC50 (Phosphomannomutase 2) was > 100 µM (inactive).

In the case of `Cc1cc(S(=O)(=O)N2CCCC(C(=O)Nc3ccc(C(=O)O)cc3)C2)ccc1Cl` (centres undefined), the EC50 (Troponin, cardiac muscle) is reported as > 71.5 µM (inactive).
